# In patent US20210113492A1, “METHOD FOR INHIBITING PROLIFERATION AND METASTASIS OF CANCER CELLS BY USING NAPHTHOQUINONE DERIVATIVE” (National Tsing Hua University, priority 2019, published 2021):
# How the values were obtained:
# NQO1 = target: T1, NQO1 (Homo sapiens, UniProt P15559); test: NQO1 enzymatic activity assay (substrate reduction with NADH and WST1); assay type: biochemical; conditions: cytosolic fractions of OC3-IV2 cells; isoplumbagin 5 μM and 10 μM, menadione 1X and 2X
# T1 construct: endogenous in cells; host or cells: OC3-IV2 (human oral squamous cell carcinoma), cytosolic fraction / lysate supernatant
# T1 sequence (P15559 whole entry): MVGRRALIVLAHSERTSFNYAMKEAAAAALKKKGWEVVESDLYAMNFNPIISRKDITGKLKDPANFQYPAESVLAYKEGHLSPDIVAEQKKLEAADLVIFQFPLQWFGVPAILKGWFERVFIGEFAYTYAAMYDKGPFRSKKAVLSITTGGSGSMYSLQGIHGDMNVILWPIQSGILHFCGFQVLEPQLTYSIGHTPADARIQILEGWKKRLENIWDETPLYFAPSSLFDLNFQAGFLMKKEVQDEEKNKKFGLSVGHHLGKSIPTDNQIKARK
# Method: FIG. 4 proves that isoplumbagin is a substrate of NQO1. The cytosolic fractions of OC3-IV2 cells were used for the NQO1 enzymatic activity assay. The NQO1 enzyme activity was calculated by measuring the simultaneous reduction of menadione or isoplumbagin with cofactor NADH and WST1 (a highly sensitive tetrazolium reagent) which leads to increased absorbance at 450 nm. NQO1 activity assay kit (#ab184867) was purchased from Abcam (Cambridge, Mass., USA). OC3-IV2 cells were lysed with 1X extraction buffer containing 1 mM phenylmethylsulfonyl fluoride (PMSF) for 15 min on ice, and then centrifuged at 17,000×g at 4° C. for 20 min. The supernatant was collected and then the protein concentration of each sample was determined by BCA assays (Santa Cruz Biotechnology). Diluted sample and reaction buffer were added into 96-wells plate containing menadione (1X and 2X) or different concentrations of isoplumbagin (5 μM and 10 μM) with cofactor NADH and WST1. The absorbance of reduced WST1 was measured at 450 nm wavelengths by a spectrophotometer. Data from three independent experiments are presented as mean ±SEM (*P<0.05 compared with no substrate, paired Student's t-test).
# [1] = test system: human primary glioblastoma cells (U87); test: MTT survival assay, U87; assay type: cell-based; conditions: 48 h, read-out: IC50, survival rate
# Method: According to the present invention, Human primary glioblastoma cell line U87 were obtained from the American Type Culture Collection (ATCC® HTB-14™, Manassas, Va., USA) and grown in DMEM medium supplemented with 10% FBS, 1% MEM Non-Essential Amino Acids Solution (Invitrogen) and 1% penicillin/streptomycin (Invitrogen). The incubator was maintained at 5% CO2 and a constant temperature of 37° C., and the culture medium was changed every two days.
# Isoplumbagin (AKOS006277326, acquired from AKos GmbH, Steinen, Germany) was dissolved in dimethyl sulfoxide (DMSO) and added to the medium, so that the final concentration of DMSO was less than 0.1%. The survival rate of isoplumbagin on OC3-IV2, U87, H1299 and PC3 cell lines was determined using the 3-(4,5-dimethylthiazol-2-yl)-2,5-diphenyltetrazolium bromide (MTT; Sigma-Aldrich) assays. 3×10^3 cells/well were seeded in 96-well plates. After incubation for 24 h, cells were treated with isoplumbagin at various concentrations (0, 1, 5, 10, 25, 50 and 100 μM) and incubated for a further 48 h. At the end of treatment, 10 μL 5 mg/mL MTT was added to each well. After incubation at 37° C. for 3 h, medium was removed and DMSO was added to each well to dissolve reduced MTT product formazan. The absorbance of dissolved formazan was measured at 550 nm wavelengths by a spectrophotometer. […]
# [2] = test system: oral squamous cell carcinoma cells (OC3-IV2); test: Mitochondrial morphology and distribution by immunofluorescence staining, OC3-IV2; assay type: cell-based, human; conditions: 1 μM or 2.5 μM, 24 hours, anti-TOM20 staining
# Method: (§1) The effects of isoplumbagin on mitochondrial morphology and distribution of OC3-IV2, U87, H1299 and PC3 cell lines were measured by immunofluorescence staining After OC3-IV2, U87, H1299, and PC3 cells were treated with DMSO, 1 μM, or 2.5 μM isoplumbagin for 24 hours, cells were fixed by 4% (v/v) paraformaldehyde and permeabilized by 0.1% (v/v) Triton X-100. Cells were incubated in blocking buffer containing 1% bovine serum albumin. After blocking, cells were incubated overnight with indicated primary antibodies against TOM20 (a mitochondria marker, sc-11415, Santa Cruz), and then incubated with Alexa Fluor 488-conjugated secondary antibodies (A11001, Invitrogen). Nucleus was stained with DAPI, actin was stained with rhodamine phalloidin (A12379, Invitrogen) and cells were mounted using Prolong Gold reagent (P36930, Invitrogen). 63 images were taken by LSM800 confocal microscopes (Zeiss).
# (§2) FIGS. 5A-5D show the effect of isoplumbagin on mitochondrial morphogenesis and distribution of oral squamous cell carcinoma cells (OC3-IV2), human primary glioblastoma cells (U87), human non-small cell lung carcinoma cells (H1299) and human prostate cancer cells (PC3). Cells treated with either solvent control (DMSO) or isoplumbagin were determined by immunofluorescence staining using anti-TOM20 (mitochondria, green) antibody, rhodamine phalloidin (actin, red) and DAPI (nucleus, blue). […]
# [3] = test system: human non-small cell lung carcinoma cells (H1299); test: Mitochondrial morphology and distribution by immunofluorescence staining, H1299; assay type: cell-based; conditions: 1 μM or 2.5 μM, 24 hours, anti-TOM20 staining
# Method: as §1, §2
# [4] = test system: human prostate cancer cells (PC3); test: Mitochondrial morphology and distribution by immunofluorescence staining, PC3; assay type: cell-based; conditions: 1 μM or 2.5 μM, 24 hours, anti-TOM20 staining
# Method: as §1, §2
structure (smiles),measurement,setting,value
"CC1=CC(=O)c2cccc(O)c2C1=O [isoplumbagin, 5-hydroxy-3-methyl-1,4-naphthoquinone]","substrate of NQO1 (reduction with NADH and WST1, absorbance at 450 nm)",NQO1,substrates of NQO1
same,IC50,[1],0.45 µg/mL
same,mitochondrial morphogenesis and distribution,[2],can alter the mitochondrial morphogenesis and distribution
same,mitochondrial morphogenesis and distribution,[3],can alter the mitochondrial morphogenesis and distribution
same,mitochondrial morphogenesis and distribution,[4],can alter the mitochondrial morphogenesis and distribution
